Here are results for five molecules from patent US8530404B2, “Compounds and methods for treatment of cancer” (FibroGen, Inc., priority 2005, dated 2013).

Assay [1] relates to human H-460 lung tumors. Briefly: Subcutaneously implanted human H-460 lung tumor mouse xenograft (Example 1). Format: in vivo. Conditions: for Mean Tumor Weight at Necropsy: day 32. From the text:
Immuno-compromised athymic CD-1 nu/nu nude mice males (5-6 weeks old) were used in this study (Charles River Laboratories, Wilmington, Mass.). Animals were maintained in a HEPA-filtered environment during the experimental period. Cages, food, and bedding were autoclaved. Animal diets were obtained from Harlan Teklad (Madison, Wis.). […] The human H460 lung cancer cell line used was obtained from the National Cancer Institute. (Brower et al., (1986) Cancer Res 46:798-806.) Xenografted H-460 tumors are sensitive to chemotherapeutics commonly used in treatment of lung cancer. […] A stock tumor was established by subcutaneously injecting a cell suspension into nude mice. The resulting tumor was maintained in nude mice subcutaneously as tumor stock prior to use. Tumor implantation was performed when the stock tumors were in log phase of growth. Before implantation, tumor tissue was harvested from stock mice and placed in RPMI-1640 medium. Necrotic tissues were dissected away and viable tissues were cut into 1-2 mm^2 pieces. Tumor fragments were then transplanted subcutaneously to the right flank of the nude mice. Treatment (administration of compounds of the present invention) was started when the inoculated tumors reached approximately 100 mm^3, and continued for four weeks. […] [table] Sizes of the primary tumors were measured through the skin with calipers once per week. […] Body weight of the mice in each group was also measured once per week during the experimental period. All animals were sacrificed following thirty-two days of treatment. Primary tumors were excised and weighed on an electronic balance. Blood samples were taken during terminal sacrifice and placed in microhematocrit tubes containing EDTA. Complete Blood Counts (CBC) and reticulocyte analysis were performed with the Cell Dyn 3700 analyzer (Abbott Diagnostics), as described by the manufacturer.
(In xenograft studies the graft and the host belong to different species.)

The test system of assay [2] is BNIP3 gene expression. Briefly: BNIP3 gene expression in MCF7 cells. The class given is cell-based. Conditions: Homo sapiens, MCF7, read-out: fold-increase in BNIP3 mRNA expression. How it is done:
(§1) To identify compounds useful in the methods of the present invention, the following studies were performed. The effect of compounds of the present invention on expression of various genes associated with anti-tumor activity (e.g., genes having anti-proliferative activity, genes having pro-apoptotic activity, genes having anti-tumor activity, etc.). In these experiments, the effect of compounds on BNIP3, BNIP3L, NDRG1, CDKN1C, and REDD1/RTP801 gene expression in various types of cultured tumor cells line was examined, including Hep3B cells (human hepatocellular carcinoma), Kelly neuroblastoma cells, and MCF7 cells (human breast cancer)
(§2) The effects of various compounds of the present invention on the expression of genes associated with tumor growth and progression were examined in MCF7 breast cancer cells as follows. In some experiments, MCF7 (ATCC) cells were plated in 96-well tissue culture dishes (approximately 20,000 cells per well) and cultured in DMEM media supplemented with 10% serum. The following day, the cells were washed and the media was replaced with DMEM containing 0.5% FBS. Various compounds of the present invention were added to the cultured cells to a final concentration of 20 μM, and the cells cultured for an additional 20-24 hours. DMSO (0.5%) was added to control cell cultures. RNA was isolated as described above. Changes in gene expression levels are presented as fold change compared to that of control (0.5% DMSO-treated) cultures.
In other experiments, MCF7 cells were plated in 96-well tissue culture dishes as described above. After 24 hours, the cells were washed and the media was replaced with DMEM containing 0.5% FBS. Various compounds of the present invention were added to the cultured cells to a final concentration of 20 μM. DMSO (0.5%) was added to control cell cultures. After 24 hours, changes in gene expression of BNIP3 and 18S RNA were determined directly using one-step quantitative multiplex RT-PCR reactions according to the manufacturer's instructions (QuantiTect Multiplex RT-PCR Kit, Qiagen, catalog no. 204643). Changes in gene expression levels are presented as fold change compared to that of control (0.5% DMSO-treated) cultures.

Assay [3] has as its system BNIP3 gene expression. Description: BNIP3 gene expression in Kelly neuroblastoma cells. Format: cell-based. The conditions noted are these: Kelly, read-out: fold-increase in BNIP3 mRNA expression. How it is done: as §1
(§3) The effects of various compounds of the present invention on the expression of genes associated with tumor growth and progression were examined in Kelly neuroblastoma cells as follows. Kelly neuroblastoma cells were grown in RPMI media. For each experiment, Kelly neuroblastoma cells were added to 96-well tissue culture plates (approximately 40,000 cells per well) such that the plated cells reached confluence the following day. On the following day, the cells were washed and the media replaced with RPMI containing 0.5% FBS. Various compounds of the present invention were added to the cultured cells to a final concentration of 20 μM, and the cells cultured for an additional 20-24 hours. DMSO (0.5%) was added to control cell cultures.
(§4) RNA was isolated from the Kelly neuroblastoma cells using a commercial kit and used for the preparation of cDNA. BNIP3, CDKN1C, and 18S RNA levels were measured using commercial kits (18S, Applied Biosystems cat#4319413E); BNIP3, Applied Biosystems cat#HS00969293 MH). RNA levels for BNIP3 and CDKN1C were normalized to that of 18S RNA and is presented as fold-change compared to that observed in DMSO control cultures. Kelly cell NDRG1 and BNIP3L mRNA levels were measured by Affymetrix microarray in a separate study. Cells were harvested after 6 hours incubation with 20 μM test compound or DMSO (0.5%) as control. RNA was isolated and labeled probes were prepared and hybridized to U133 Plus 2.0 Affymetrix microarrays. Changes in gene expression levels are presented as fold change compared to that of control (0.5% DMSO-treated) cultures.

The test system of assay [4] is CDKN1C gene expression. Briefly: CDKN1C gene expression in MCF7 cells. The class given is cell-based. The conditions noted are these: Homo sapiens, MCF7, read-out: fold-increase in CDKN1C mRNA expression. The method, then: as §1, §2
For assay [5], the system named is CDKN1C gene expression. Description: CDKN1C gene expression in Kelly neuroblastoma cells. Format: cell-based. Conditions: Kelly, read-out: fold-increase in CDKN1C mRNA expression. The method, then: as §1, §3, §4

Marks after values point to notes of the source that are not given here.

`O=C(O)CNC(=O)c1nc(Cl)c2ccccc2c1O` [Compound A, [(1-Chloro-4-hydroxy-isoquinoline-3-carbonyl)-amino]-acetic acid]: the mean tumor volume in assay [1] (day 0, 20 mg/kg PO) is reported as 88 mm^3; in assay [1] (day 0, 60 mg/kg PO), 105 mm^3; in assay [1] (day 10, 20 mg/kg PO), 730 mm^3; in assay [1] (day 10, 60 mg/kg PO) it was 895 mm^3; in assay [1] (day 17, 20 mg/kg PO), 1376 mm^3; in assay [1] (day 17, 60 mg/kg PO) it was 1742 mm^3. For the same molecule, the mean tumor volume in assay [1] (day 24, 20 mg/kg PO) is reported as 2499** mm^3; in assay [1] (day 24, 60 mg/kg PO), 2662* mm^3; in assay [1] (day 31, 20 mg/kg PO) it was 2670** mm^3; in assay [1] (day 31, 60 mg/kg PO), 2968* mm^3. Moreover, the “Mean Tumor Weight at Necropsy” value is listed as 3.05 g in assay [1] (20 mg/kg PO) and 3.09 g in assay [1] (60 mg/kg PO).

Consider `C[C@H](NC(=O)c1ncc2cc(Oc3ccccc3)ccc2c1O)C(=O)O` [Compound B, (S)-2-[(4-Hydroxy-7-phenoxy-isoquinoline-3-carbonyl)-amino]-propionic acid], for which the fold induction at 20 µM came out at 4.5 in assay [2], 17.2 in assay [3], 0.5 in assay [4] and 91 in assay [5]. For the same molecule, the mean tumor volume in assay [1] (day 0, 6 mg/kg PO) is 101 mm^3; in assay [1] (day 0, 20 mg/kg PO), 108 mm^3; in assay [1] (day 10, 6 mg/kg PO), 884 mm^3; in assay [1] (day 10, 20 mg/kg PO) it was 914 mm^3; in assay [1] (day 17, 6 mg/kg PO), 1949 mm^3; in assay [1] (day 17, 20 mg/kg PO) it was 1858 mm^3. Also, the mean tumor volume in assay [1] (day 24, 6 mg/kg PO) was 3131 mm^3; in assay [1] (day 24, 20 mg/kg PO) it was 3074 mm^3; in assay [1] (day 31, 6 mg/kg PO) it was 3343 mm^3; in assay [1] (day 31, 20 mg/kg PO) it was 3229 mm^3. Moreover, the “Mean Tumor Weight at Necropsy” value is 4.27 g in assay [1] (6 mg/kg PO) and 3.60 g in assay [1] (20 mg/kg PO).

For the molecule `COc1ccc(Oc2ccc3c(O)c(C(=O)NCC(=O)O)ncc3c2)cc1` [Compound C, {[4-Hydroxy-7-(4-methoxy-phenoxy)-isoquinoline-3-carbonyl]-amino}-acetic acid], the fold induction at 20 µM in assay [2] stood at 5; in assay [3], 2.6; in assay [4], 0.6; in assay [5], 49. The mean tumor volume was 91 mm^3 in assay [1] (day 0, 20 mg/kg PO); 638 mm^3 in assay [1] (day 10, 20 mg/kg PO); 1365 mm^3 in assay [1] (day 17, 20 mg/kg PO); 2239** mm^3 in assay [1] (day 24, 20 mg/kg PO); 2373** mm^3 in assay [1] (day 31, 20 mg/kg PO). In addition, the “Mean Tumor Weight at Necropsy” value in assay [1] (20 mg/kg PO) was found to be 2.35 g.

Turning to `Cc1nc(C(=O)NCC(=O)O)c(O)c2ccc(Oc3ccccc3)cc12` [Compound D, [(4-Hydroxy-1-methyl-7-phenoxy-isoquinoline-3-carbonyl)-amino]-acetic acid], the figures for the fold induction at 20 µM in assay [3] and in assay [5] were 21.9 and 382, respectively.

In the case of `O=C(O)CNC(=O)c1ncc2cc(Oc3ccc(F)cc3)ccc2c1O` [Compound E, {[7-(4-fluoro-phenoxy)-4-hydroxy-isoquinoline-3-carbonyl]-amino}-acetic acid], the fold induction at 20 µM in assay [2] was 5.3; in assay [3] it was 31.8; in assay [4], 0.4; in assay [5], 184.
